Laboratory results reported in US8557853B2, “Aryl fluoroethyl ureas acting as alpha 2 adrenergic agents” (Allergan, Inc., priority 2007, dated 2013).

Experiments:
Type in all cases: cell-based
alpha2B receptor = biological target: T1, alpha2B receptor (Homo sapiens, UniProt P18089); assay: RSAT (Receptor Selection and Amplification Technology) assay, alpha 2B; settings: for EC50: RSAT, transfected NIH-3T3 cells, "not active" = not active at concentrations less than 10 micromolar, read-out: Alpha 2B EC50; for Alpha 2B IA: intrinsic activity: ratio of maximal effect of drug to maximal effect of standard full agonist brimonidine (UK14304)
T1 construct: expressed in transfected cells; host or cells: NIH-3T3 cells
T1 sequence (P18089 1-450): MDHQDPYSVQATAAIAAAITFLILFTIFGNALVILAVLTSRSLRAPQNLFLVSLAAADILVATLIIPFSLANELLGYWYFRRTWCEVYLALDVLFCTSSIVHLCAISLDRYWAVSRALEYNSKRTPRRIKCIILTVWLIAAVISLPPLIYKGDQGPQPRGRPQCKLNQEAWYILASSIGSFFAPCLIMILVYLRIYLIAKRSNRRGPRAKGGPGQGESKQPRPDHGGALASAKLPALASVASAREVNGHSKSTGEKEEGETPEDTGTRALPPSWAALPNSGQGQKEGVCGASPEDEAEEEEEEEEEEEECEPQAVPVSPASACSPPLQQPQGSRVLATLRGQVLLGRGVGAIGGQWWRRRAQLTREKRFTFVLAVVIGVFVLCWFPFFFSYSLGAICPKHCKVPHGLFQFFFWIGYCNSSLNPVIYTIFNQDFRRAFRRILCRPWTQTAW
Procedure: (§1) The RSAT assay measures a receptor-mediated loss of contact inhibition that results in selective proliferation of receptor-containing cells in a mixed population of confluent cells. The increase in cell number is assessed with an appropriate transfected marker gene such as ∃-galactosidase, the activity of which can be easily measured in a 96-well format. Receptors that activate the G protein, Gq, elicit this response. Alpha 2 receptors, which normally couple to Gi, activate the RSAT response when coexpressed with a hybrid Gq protein that has a Gi receptor recognition domain, called Gq/i5.
(§2) NIH-3T3 cells are plated at a density of 2×10^6 cells in 15 cm dishes and maintained in Dulbecco's modified Eagle's medium supplemented with 10% calf serum. One day later, cells are cotransfected by calcium phosphate precipitation with mammalian expression plasmids encoding p-SV-β-galactosidase (5-10 μg), receptor (1-2 μg) and G protein (1-2 μg). 40 μg salmon sperm DNA may also be included in the transfection mixture. Fresh media is added on the following day and 1-2 days later, cells are harvested and frozen in 50 assay aliquots. Cells are thawed and 100 μl added to 100 μl aliquots of various concentrations of drugs in triplicate in 96-well dishes. Incubations continue 72-96 hr at 37° C. After washing with phosphate-buffered saline, ∃-galactosidase enzyme activity is determined by adding 200 μl of the chromogenic substrate (consisting of 3.5 mM o-nitrophenyl-β-D-galactopyranoside and 0.5% nonidet P-40 in phosphate buffered saline), incubating overnight at 30° C. and measuring optical density at 420 nm. The absorbance is a measure of enzyme activity, which depends on cell number and reflects a receptor-mediated cell proliferation. The efficacy or intrinsic activity is calculated as a ratio of the maximal effect of the drug to the maximal effect of a standard full agonist for each receptor subtype. Brimonidine, also called UK14304, the chemical structure of which is shown below, is used as the standard agonist for the alpha2A, alpha2B and alpha2C receptors.

alpha2A receptor = biological target: T2, alpha2A receptor (Homo sapiens, UniProt P08913); assay: RSAT (Receptor Selection and Amplification Technology) assay, alpha 2A; settings: for Alpha 2A IA: intrinsic activity: ratio of maximal effect of drug to maximal effect of standard full agonist brimonidine (UK14304)
T2 construct: expressed in transfected cells; host or cells: NIH-3T3 cells
T2 sequence (P08913 1-465): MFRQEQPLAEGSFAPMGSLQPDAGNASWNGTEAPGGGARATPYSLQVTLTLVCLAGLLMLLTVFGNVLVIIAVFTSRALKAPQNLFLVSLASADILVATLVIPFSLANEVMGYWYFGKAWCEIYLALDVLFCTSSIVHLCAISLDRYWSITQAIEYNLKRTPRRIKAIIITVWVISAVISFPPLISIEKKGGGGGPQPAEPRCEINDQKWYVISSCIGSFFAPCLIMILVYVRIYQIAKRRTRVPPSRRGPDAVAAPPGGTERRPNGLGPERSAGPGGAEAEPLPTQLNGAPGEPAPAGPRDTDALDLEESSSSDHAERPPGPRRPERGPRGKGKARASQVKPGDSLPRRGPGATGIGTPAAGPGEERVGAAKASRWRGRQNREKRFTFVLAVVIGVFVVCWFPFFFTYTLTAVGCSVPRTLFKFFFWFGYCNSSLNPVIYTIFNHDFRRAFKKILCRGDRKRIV
From the text: (§3) The aryl fluoroethyl ureas of the invention are agonists of alpha2 adrenergic receptors. […] Al, 1995, Pharmacol. Toxicol. 76, pp. 308-311 (incorporated herein by reference) and is also described below. Another reference pertinent to this assay is Conklin et al. (1993) Nature 363:274-6, Receptor Selection and Amplification Technology (RSAT) assay, also incorporated herein by reference.
as §1, §2
(§4) The results of the RSAT assay with several exemplary compounds of the invention are disclosed in Table 1 below together with the chemical structures of these compounds. “Not active” means the compounds are not active at concentrations less than 10 micromolar.

alpha2C receptor = biological target: T3, alpha2C receptor (Homo sapiens, UniProt P18825); assay: RSAT (Receptor Selection and Amplification Technology) assay, alpha 2C; settings: for Alpha 2C IA: intrinsic activity: ratio of maximal effect of drug to maximal effect of standard full agonist brimonidine (UK14304)
T3 construct: expressed in transfected cells; host or cells: NIH-3T3 cells
T3 sequence (P18825 1-462): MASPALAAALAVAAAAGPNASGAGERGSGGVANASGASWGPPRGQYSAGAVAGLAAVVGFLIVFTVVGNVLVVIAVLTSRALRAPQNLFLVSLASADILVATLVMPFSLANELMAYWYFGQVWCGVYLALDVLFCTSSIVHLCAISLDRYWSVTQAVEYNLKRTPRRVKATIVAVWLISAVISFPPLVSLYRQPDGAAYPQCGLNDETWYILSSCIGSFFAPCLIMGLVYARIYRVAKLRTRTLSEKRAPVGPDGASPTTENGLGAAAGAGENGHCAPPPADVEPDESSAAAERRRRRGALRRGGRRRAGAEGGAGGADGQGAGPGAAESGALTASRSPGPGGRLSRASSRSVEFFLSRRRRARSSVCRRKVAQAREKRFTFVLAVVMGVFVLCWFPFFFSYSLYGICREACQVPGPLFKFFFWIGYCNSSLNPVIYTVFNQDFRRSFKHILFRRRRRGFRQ
From the text: as §3, §1, §2, §4

[1] = RSAT, transfected NIH-3T3 cells, "not active" = not active at concentrations less than 10 micromolar

Row | SMILES | EC50 (alpha2B receptor) | Alpha 2B IA (alpha2B receptor) | EC50 (alpha2A receptor; [1]) | Alpha 2A IA (alpha2A receptor) | EC50 (alpha2C receptor; [1]) | Alpha 2C IA (alpha2C receptor) | Alpha 2A EC50 (alpha2A receptor; [1]) | Alpha 2C EC50 (alpha2C receptor; [1])
1 | Cc1ccccc1NC(=O)NCCF [Compound 22, 1-(2-fluoro-ethyl)-3-o-tolyl-urea] | 1540 nM | 0.92 | > 2000 nM | 0.38 | > 2000 nM | 0.48 | – | –
2 | Cc1cccc(C)c1NC(=O)NCCF [Compound 23, 1-(2,6-dimethyl-phenyl)-3-(2-fluoro-ethyl)-urea] | 679 nM | 0.75 | > 2000 nM | 0.61 | > 2000 nM | 0.43 | – | –
3 | CCc1ccccc1NC(=O)NCCF [Compound 24, 1-(2-ethyl-phenyl)-3-(2-fluoro-ethyl)-urea] | > 2000 nM | 0.82 | 2670 nM | 0.35 | > 2000 nM | 0.36 | – | –
4 | O=C(NCCF)Nc1ccc2ccccc2c1 [Compound 25, 1-(2-fluoro-ethyl)-3-naphthalen-2-yl-urea] | 1580 nM | 0.99 | 1270 nM | 0.58 | > 2000 nM | 0.59 | – | –
5 | O=C(NCCF)Nc1ccccc1Br [Compound 26, 1-(2-bromo-phenyl)-3-(2-fluoro-ethyl)-urea] | 2650 nM | 0.33 | – | – | – | – | not active | not active
6 | Cc1cccc(NC(=O)NCCF)c1C [Compound 27, 1-(2,3-dimethyl-phenyl)-3-(2-fluoro-ethyl)-urea] | 401 nM | 0.9 | > 2000 nM | 0.54 | 740 nM | 0.73 | – | –
7 | O=C(NCCF)Nc1cccc2c1CCCC2 [Compound 28, 1-(2-fluoro-ethyl)-3-(5,6,7,8-tetrahydro-naphthalen-1-yl)-urea] | 157 nM | 0.87 | 385 nM | 0.43 | 285 nM | 0.74 | – | –
8 | O=C(NCCF)Nc1cccc2c1CCC2 [Compound 29, 1-(2-fluoro-ethyl)-3-indan-4-yl-urea] | 1220 nM | 0.89 | 940 nM | 0.37 | 2550 nM | 0.63 | – | –
9 | O=C(NCCF)Nc1cccc2ccccc12 [Compound 30, 1-(2-fluoro-ethyl)-3-naphthalen-1-yl-urea] | 458 nM | 0.9 | 1060 nM | 0.74 | > 2000 nM | 0.66 | – | –
10 | O=C(NCCF)NCc1cccc2c1OCO2 [Compound 31, 1-benzo(1,3)dioxol-4-ylmethyl-3-(2-fluoro-ethyl)-urea] | 119 nM | 1.0 | > 2000 nM | 0.48 | 2020 nM | 1.2 | – | –
